Results reported in PMC8881610 (Nature Communications, 2022).
Changes are numbered by the printed parent chain.

How the values were obtained:
GIPR [1] = biological target: T1, GIPR (Homo sapiens, UniProt P48546, T345F); assay: cAMP accumulation assay (LANCE Ultra cAMP kit), GIPR WT, mutant or modified constructs; assay type: cell-based; set-up: acylated tirzepatide to the full-length or modified; Flag; expressed in transfected cells; host or cells: HEK293T; conditions: GIPR T345F, HEK293T; for EC50: read-out: cAMP pEC50 (converted)
T1 sequence (P48546 22-466 T345F): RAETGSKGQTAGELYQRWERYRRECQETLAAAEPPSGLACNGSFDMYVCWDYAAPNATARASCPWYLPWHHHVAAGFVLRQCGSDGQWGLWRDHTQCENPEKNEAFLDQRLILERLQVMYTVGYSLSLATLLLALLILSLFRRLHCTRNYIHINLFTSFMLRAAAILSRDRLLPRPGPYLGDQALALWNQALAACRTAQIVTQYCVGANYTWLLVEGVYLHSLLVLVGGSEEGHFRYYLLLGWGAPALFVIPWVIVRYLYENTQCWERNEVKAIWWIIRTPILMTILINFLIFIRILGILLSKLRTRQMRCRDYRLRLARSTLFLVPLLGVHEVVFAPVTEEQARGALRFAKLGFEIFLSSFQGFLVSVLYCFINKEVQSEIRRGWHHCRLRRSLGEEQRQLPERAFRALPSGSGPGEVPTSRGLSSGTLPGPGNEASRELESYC
Description: (§1) Human embryonic kidney 293 cells containing SV40 large T-antigen (HEK293T) were cultured in DMEM (Gibco) supplemented with 10% (v/v) fetal bovine serum (FBS, Gibco), 1 mM sodium pyruvate (Gibco) and 100 units/mL penicillin and 100 μg/mL streptomycin at 37 °C in 5% CO2. Chinese hamster ovary (CHO-K1) cells were cultured in F-12 (Gibco) containing 10% FBS, 100 units/mL penicillin and 100 μg/mL streptomycin at 37 °C in 5% CO2. For cAMP and receptor expression assays, HEK293T cells were seeded into 6-well cell culture plates at a density of 7 × 10^5 cells per well. After overnight incubation, cells were transfected with GIPR, GLP-1R or GCGR construct using Lipofectamine 2000 or Lipofectamine 3000 transfection reagent (Invitrogen). For whole-cell binding assay, CHO-K1 cells were seeded into 96-well fibronectin-treated cell culture plates at a density of 3 × 10^4 cells per well. After overnight incubation, cells were transfected with GIPR, GLP-1R or GCGR construct using Lipofectamine 2000 transfection reagent (Invitrogen). Following 24 h culturing, the transfected cells were ready for use.
(§2) A BRIL fusion protein was added at the N-terminal of the ECD with a TEV protease site and 2GSA linker between them. C-terminal 45 amino acids (Q422-C466) of the receptor were truncated. LgBiT was added at the end of helix 8 with a 15-amino acid (15AA) polypeptide linker in between, followed by a TEV protease cleavage site and an OMBP-MBP tag. […] The construct and various mutants of human GIPR were cloned into pcDNA3.1 vector for cAMP accumulation and whole-cell binding assays.
(§3) For GIPR, GLP-1R and GCGR, multi-targeting agonist stimulated cAMP accumulation was measured by a LANCE Ultra cAMP kit (PerkinElmer). After 24 h culture, the transfected cells were seeded into 384-well microtiter plates at a density of 3,000 cells per well in HBSS supplemented with 5 mM HEPES, 0.1% (w/v) BSA or 0.1% (w/v) casein and 0.5 mM 3-isobutyl-1-methylxanthine. The cells were stimulated with different concentrations of peptide agonists for 40 min at RT. Eu-cAMP tracer and ULight^TM-anti-cAMP were then diluted by cAMP detection buffer and added to the plates separately to terminate the reaction. Plates were incubated at RT for 1 h and the fluorescence intensity measured at 620 nm and […] by an EnVision multilabel plate reader (PerkinElmer).

GIPR [2] = biological target: T2, GIPR (Homo sapiens, UniProt P48546, Y36A); assay: as above; assay type: cell-based; set-up: acylated tirzepatide to the full-length or modified; Flag; expressed in transfected cells; host or cells: HEK293T; conditions: GIPR Y36A, HEK293T; for EC50: read-out: cAMP pEC50 (converted)
T2 sequence (P48546 22-466 Y36A): T1 sequence (P48546 22-466 T345F) with Y15A, F324T
Description: as §1, §2, §3

Row | Structure (SMILES) | EC50 (GIPR [1]) [nM] | EC50 (GIPR [2]) [nM] | Emax (GIPR [1]; HEK-293T) [%] | Emax (GIPR [2]; HEK-293T) [%]
1 | CC[C@H](C)[C@H](NC(=O)[C@H](CC(C)C)NC(=O)[C@H](Cc1c[nH]c2ccccc12)NC(=O)[C@H](CCC(N)=O)NC(=O)[C@@H](NC(=O)[C@H](Cc1ccccc1)NC(=O)[C@H](C)NC(=O)[C@H](CCCCNC(=O)COCCOCCNC(=O)COCCOCCNC(=O)CC[C@H](NC(=O)CCCCCCCCCCCCCCCCCCC(=O)O)C(=O)O)NC(=O)[C@H](CCC(N)=O)NC(=O)[C@H](C)NC(=O)[C@@H](NC(=O)[C@H](CCCCN)NC(=O)[C@H](CC(=O)O)NC(=O)[C@H](CC(C)C)NC(=O)C(C)(C)NC(=O)[C@@H](NC(=O)[C@H](CO)NC(=O)[C@H](Cc1ccc(O)cc1)NC(=O)[C@H](CC(=O)O)NC(=O)[C@H](CO)NC(=O)[C@@H](NC(=O)[C@H](Cc1ccccc1)NC(=O)[C@@H](NC(=O)CNC(=O)[C@H](CCC(=O)O)NC(=O)C(C)(C)NC(=O)[C@@H](N)Cc1ccc(O)cc1)[C@@H](C)O)[C@@H](C)O)[C@@H](C)CC)[C@@H](C)CC)C(C)C)C(=O)N[C@@H](C)C(=O)NCC(=O)NCC(=O)N1CCC[C@H]1C(=O)N[C@@H](CO)C(=O)N[C@@H](CO)C(=O)NCC(=O)N[C@@H](C)C(=O)N1CCC[C@H]1C(=O)N1CCC[C@H]1C(=O)N1CCC[C@H]1C(=O)N[C@@H](CO)C(N)=O [Tirzepatide] | 0.0141 | 0.0589 |  | 
2 | CCCCCCCCCCCCCCCC(=O)N[C@@H](CCC(=O)NCCCC[C@H](NC(=O)[C@H](CC(=O)O)NC(=O)[C@H](CO)NC(=O)[C@@H](NC(=O)[C@H](Cc1ccccc1)NC(=O)[C@@H](NC(=O)CNC(=O)[C@H](CCC(N)=O)NC(=O)C(C)(C)NC(=O)[C@@H](N)Cc1c[nH]cn1)[C@@H](C)O)[C@@H](C)O)C(=O)N[C@@H](CO)C(=O)N[C@@H](CCCCN)C(=O)N[C@@H](Cc1ccc(O)cc1)C(=O)N[C@@H](CC(C)C)C(=O)N[C@@H](CC(=O)O)C(=O)N[C@@H](CCC(=O)O)C(=O)N[C@@H](CCCNC(=N)N)C(=O)N[C@@H](C)C(=O)N[C@@H](C)C(=O)N[C@@H](CCC(N)=O)C(=O)N[C@@H](CC(=O)O)C(=O)N[C@@H](Cc1ccccc1)C(=O)N[C@H](C(=O)N[C@@H](CCC(N)=O)C(=O)N[C@@H](Cc1c[nH]c2ccccc12)C(=O)N[C@@H](CC(C)C)C(=O)N[C@@H](CC(C)C)C(=O)N[C@@H](CC(=O)O)C(=O)NCC(=O)NCC(=O)N1CCC[C@H]1C(=O)N[C@@H](CO)C(=O)N[C@@H](CO)C(=O)NCC(=O)N[C@@H](C)C(=O)N1CCC[C@H]1C(=O)N1CCC[C@H]1C(=O)N1CCC[C@H]1C(=O)N[C@@H](CO)C(N)=O)C(C)C)C(=O)O [Peptide 20] | 0.00794 | 0.0123 | 99.6 ± 2.09 | 100 ± 1.62
